These are literature values, as cited in patent US20230364095A1, “TOPICAL TREATMENT OF VITILIGO” (INCYTE CORPORATION, priority 2020, published 2023).

Like-named read-outs stand apart in the source and are kept apart here.

The series relates to patients with vitiligo.

Take `C[C@@H]1CCN(C(=O)CC#N)C[C@@H]1N(C)c1ncnc2[nH]ccc12` [tofacitinib]: the “Clinical outcome (case report)” value (oral 5 mg QD, after 5 months, widespread and progressive vitiligo) is on record as “near complete repigmentation”.

On to `N#CC[C@H](C1CCCC1)n1cc(-c2ncnc3[nH]ccc23)cn1` [ruxolitinib, (R)-3-(4-(7H-pyrrolo[2,3-d]pyrimidin-4-yl)-1H-pyrazol-1-yl)-3-cyclopentylpropanenitrile], for which the “Clinical outcome (case report)” value (oral 20 mg BID for 20 weeks, patient with alopecia areata and vitiligo) was “hair regrowth as well as repigmentation of areas affected with vitiligo”.
